Data published in the CheMixHub viscosity set.
± gives the uncertainty stated by the source.

Assay: xn = mol fraction of the nth substance listed

C1CCOC1 + C1CCCCC1
Conditions | viscosity [mPa·s]
298.15 K, 101.3 kPa, x2 = 0.1002 | 0.4906 ± 0.0047
298.15 K, 101.3 kPa, x2 = 0.1973 | 0.5151 ± 0.0048
298.15 K, 101.3 kPa, x2 = 0.2946 | 0.5406 ± 0.005
298.15 K, 101.3 kPa, x2 = 0.3963 | 0.5689 ± 0.0052
298.15 K, 101.3 kPa, x2 = 0.5012 | 0.6048 ± 0.0055
298.15 K, 101.3 kPa, x2 = 0.5961 | 0.6424 ± 0.0057
298.15 K, 101.3 kPa, x2 = 0.7009 | 0.6906 ± 0.0061
298.15 K, 101.3 kPa, x2 = 0.906 | 0.8152 ± 0.0071
303.15 K, 101.33 kPa, x1 = 0.0954 | 0.751 ± 0.007
303.15 K, 101.33 kPa, x1 = 0.1961 | 0.691 ± 0.006
303.15 K, 101.33 kPa, x1 = 0.3067 | 0.639 ± 0.006
303.15 K, 101.33 kPa, x1 = 0.4023 | 0.6 ± 0.005
303.15 K, 101.33 kPa, x1 = 0.5059 | 0.562 ± 0.005
303.15 K, 101.33 kPa, x1 = 0.6054 | 0.533 ± 0.005
303.15 K, 101.33 kPa, x1 = 0.704 | 0.505 ± 0.005
303.15 K, 101.33 kPa, x1 = 0.8065 | 0.478 ± 0.004
303.15 K, 101.33 kPa, x1 = 0.8987 | 0.457 ± 0.004
313.15 K, 101.3 kPa, x2 = 0.1002 | 0.4186 ± 0.0042
313.15 K, 101.3 kPa, x2 = 0.1973 | 0.4356 ± 0.0043
313.15 K, 101.3 kPa, x2 = 0.2946 | 0.4542 ± 0.0044
313.15 K, 101.3 kPa, x2 = 0.3963 | 0.4773 ± 0.0046
313.15 K, 101.3 kPa, x2 = 0.5012 | 0.5037 ± 0.0048
313.15 K, 101.3 kPa, x2 = 0.5961 | 0.5305 ± 0.005
313.15 K, 101.3 kPa, x2 = 0.7009 | 0.5648 ± 0.0052
313.15 K, 101.3 kPa, x2 = 0.906 | 0.6505 ± 0.006

CC(C)=O + C1CCCCC1
viscosity [mPa·s], 101.33 kPa
Conditions | 293.15 K | 298.15 K | 303.15 K | 307.35 K
x1 = 0.091 | – | – | – | 0.662 ± 0.011
x1 = 0.3116 | – | – | – | 0.512 ± 0.0093
x1 = 0.3949 | – | – | – | 0.461 ± 0.0089
x1 = 0.4589 | – | – | – | 0.431 ± 0.0087
x1 = 0.5299 | – | – | – | 0.402 ± 0.0084
x1 = 0.7897 | – | – | – | 0.323 ± 0.0078
x2 = 0.049 | 0.329 ± 0.007 | 0.313 ± 0.006 | 0.299 ± 0.006 | –
x2 = 0.0917 | 0.336 ± 0.007 | 0.32 ± 0.007 | 0.305 ± 0.006 | –
x2 = 0.1959 | 0.361 ± 0.007 | 0.343 ± 0.007 | 0.326 ± 0.007 | –
x2 = 0.2889 | 0.392 ± 0.008 | 0.371 ± 0.007 | 0.352 ± 0.007 | –
x2 = 0.4092 | 0.443 ± 0.008 | 0.417 ± 0.008 | 0.394 ± 0.008 | –
x2 = 0.5009 | 0.486 ± 0.009 | 0.456 ± 0.008 | 0.429 ± 0.008 | –
x2 = 0.5984 | 0.544 ± 0.01 | 0.509 ± 0.009 | 0.477 ± 0.009 | –
x2 = 0.7007 | 0.621 ± 0.011 | 0.578 ± 0.01 | 0.54 ± 0.01 | –
x2 = 0.8046 | 0.7 ± 0.012 | 0.65 ± 0.011 | 0.606 ± 0.01 | –
x2 = 0.9051 | 0.818 ± 0.013 | 0.756 ± 0.013 | 0.701 ± 0.012 | –
x2 = 0.958 | 0.895 ± 0.015 | 0.829 ± 0.014 | 0.762 ± 0.013 | –

CCCc1ccccc1 + C1CCCCC1
303.15 K, 101 kPa
Conditions | viscosity [mPa·s]
x2 = 0.1018 | 0.7449 ± 0.0048
x2 = 0.2046 | 0.7318 ± 0.0048
x2 = 0.3024 | 0.7218 ± 0.0047
x2 = 0.3975 | 0.7149 ± 0.0047
x2 = 0.5018 | 0.7144 ± 0.0047
x2 = 0.6007 | 0.716 ± 0.0047
x2 = 0.6984 | 0.7272 ± 0.0048
x2 = 0.7974 | 0.749 ± 0.0049
x2 = 0.9039 | 0.7828 ± 0.005

COc1ccccc1 + C1CCCCC1
viscosity [mPa·s]
Conditions | 298.15 K | 303.15 K | 308.15 K | 313.15 K
101 kPa, x1 = 0.1016 | 0.8187 ± 0.021 | 0.7586 ± 0.02 | 0.7009 ± 0.018 | 0.6496 ± 0.017
101 kPa, x1 = 0.1993 | 0.7856 ± 0.02 | 0.7308 ± 0.019 | 0.68 ± 0.018 | 0.6314 ± 0.016
101 kPa, x1 = 0.3005 | 0.77 ± 0.02 | 0.7174 ± 0.019 | 0.668 ± 0.017 | 0.6223 ± 0.016
101 kPa, x1 = 0.3997 | 0.7696 ± 0.02 | 0.7169 ± 0.019 | 0.6674 ± 0.017 | 0.6228 ± 0.016
101 kPa, x1 = 0.5014 | 0.7849 ± 0.02 | 0.7317 ± 0.019 | 0.6829 ± 0.018 | 0.637 ± 0.017
101 kPa, x1 = 0.6014 | 0.803 ± 0.021 | 0.7509 ± 0.019 | 0.7001 ± 0.018 | 0.6546 ± 0.017
101 kPa, x1 = 0.7043 | 0.8378 ± 0.022 | 0.7843 ± 0.02 | 0.7318 ± 0.019 | 0.6823 ± 0.018
101 kPa, x1 = 0.8 | 0.8834 ± 0.023 | 0.8216 ± 0.021 | 0.7693 ± 0.02 | 0.7163 ± 0.019
101 kPa, x1 = 0.8992 | 0.9338 ± 0.024 | 0.87 ± 0.023 | 0.8092 ± 0.021 | 0.7511 ± 0.019
101.3 kPa, x1 = 0.0224 | – | 0.799 ± 0.013 | – | –
101.3 kPa, x1 = 0.0385 | – | 0.783 ± 0.013 | – | –
101.3 kPa, x1 = 0.0614 | – | 0.773 ± 0.013 | – | –
101.3 kPa, x1 = 0.4829 | – | 0.708 ± 0.012 | – | –
101.3 kPa, x1 = 0.5172 | – | 0.714 ± 0.012 | – | –
101.3 kPa, x1 = 0.5409 | – | 0.72 ± 0.012 | – | –
101.3 kPa, x1 = 0.5731 | – | 0.729 ± 0.012 | – | –
101.3 kPa, x1 = 0.7744 | – | 0.792 ± 0.013 | – | –
101.3 kPa, x1 = 0.8952 | – | 0.846 ± 0.014 | – | –
101.3 kPa, x1 = 0.9478 | – | 0.884 ± 0.014 | – | –

CC1COC(=O)O1 (stereo not drawn) + C1CCOC1
viscosity [mPa·s]
Conditions | 298.15 K | 308.15 K | 318.15 K
101 kPa, x2 = 0.2 | 1.7 ± 0.02 | – | –
101 kPa, x2 = 0.6 | 0.862 ± 0.008 | – | –
101.33 kPa, x2 = 0.0524 | 2.227 ± 0.017 | 1.858 ± 0.014 | 1.589 ± 0.012
101.33 kPa, x2 = 0.1036 | 2.023 ± 0.015 | 1.709 ± 0.013 | 1.459 ± 0.011
101.33 kPa, x2 = 0.1429 | 1.87 ± 0.014 | 1.598 ± 0.012 | 1.373 ± 0.01
101.33 kPa, x2 = 0.2064 | 1.674 ± 0.012 | 1.432 ± 0.01 | 1.239 ± 0.0092
101.33 kPa, x2 = 0.2431 | 1.567 ± 0.011 | 1.351 ± 0.0099 | 1.167 ± 0.0086
101.33 kPa, x2 = 0.3083 | 1.393 ± 0.01 | 1.208 ± 0.0088 | 1.057 ± 0.0078
101.33 kPa, x2 = 0.3478 | 1.303 ± 0.0093 | 1.133 ± 0.0082 | 0.992 ± 0.0073
101.33 kPa, x2 = 0.4095 | 1.171 ± 0.0083 | 1.025 ± 0.0074 | –
101.33 kPa, x2 = 0.5098 | – | 0.8753 ± 0.0063 | 0.7782 ± 0.0057
101.33 kPa, x2 = 0.5621 | – | 0.8044 ± 0.0058 | 0.7222 ± 0.0053
101.33 kPa, x2 = 0.6094 | 0.8417 ± 0.006 | 0.7503 ± 0.0054 | 0.6719 ± 0.0049
101.33 kPa, x2 = 0.6479 | 0.7836 ± 0.0056 | 0.7016 ± 0.0051 | 0.6343 ± 0.0047
101.33 kPa, x2 = 0.7082 | 0.7171 ± 0.0051 | 0.6445 ± 0.0047 | 0.5827 ± 0.0043
101.33 kPa, x2 = 0.7635 | 0.6549 ± 0.0047 | 0.596 ± 0.0044 | –
101.33 kPa, x2 = 0.8062 | 0.6195 ± 0.0045 | – | 0.5098 ± 0.0038
101.33 kPa, x2 = 0.8388 | 0.5831 ± 0.0042 | 0.5361 ± 0.004 | 0.4805 ± 0.0037
101.33 kPa, x2 = 0.9035 | 0.5357 ± 0.0039 | 0.4872 ± 0.0037 | 0.4425 ± 0.0034
101.33 kPa, x2 = 0.9631 | 0.485 ± 0.0036 | 0.4449 ± 0.0034 | 0.404 ± 0.0032

CCCc1ccccc1 + C1CCOC1
303.15 K, 101.33 kPa
Conditions | viscosity [mPa·s]
x2 = 0.1005 | 0.732 ± 0.006
x2 = 0.199 | 0.709 ± 0.006
x2 = 0.3031 | 0.682 ± 0.006
x2 = 0.4019 | 0.656 ± 0.006
x2 = 0.4983 | 0.63 ± 0.006
x2 = 0.6024 | 0.596 ± 0.005
x2 = 0.7022 | 0.561 ± 0.005
x2 = 0.8014 | 0.525 ± 0.005
x2 = 0.8964 | 0.485 ± 0.005

C1CCOC1 + C1COCCO1
Conditions | viscosity [mPa·s]
298.15 K, 101 kPa, x2 = 0.5 | 0.6797 ± 0.018

CC1COC(=O)O1 (stereo not drawn) + C1COCCO1
303.15 K, 101.3 kPa
Conditions | viscosity [mPa·s]
x1 = 0.1007 | 1.1 ± 0.018
x1 = 0.2012 | 1.184 ± 0.02
x1 = 0.3015 | 1.273 ± 0.021
x1 = 0.4017 | 1.369 ± 0.023
x1 = 0.5017 | 1.472 ± 0.024
x1 = 0.6015 | 1.582 ± 0.026
x1 = 0.7018 | 1.706 ± 0.028
x1 = 0.8014 | 1.844 ± 0.03
x1 = 0.9008 | 1.992 ± 0.032

CCCc1ccccc1 + C1COCCO1
303.15 K, 101.3 kPa
Conditions | viscosity [mPa·s]
x2 = 0.1061 | 0.7763 ± 0.005
x2 = 0.1984 | 0.8007 ± 0.0052
x2 = 0.2968 | 0.8298 ± 0.0053
x2 = 0.399 | 0.8589 ± 0.0055
x2 = 0.4945 | 0.8922 ± 0.0057
x2 = 0.5985 | 0.9278 ± 0.0059
x2 = 0.7003 | 0.9648 ± 0.0061
x2 = 0.8026 | 1.005 ± 0.0063
x2 = 0.9025 | 1.045 ± 0.0065
